Test results published in US7538107B2, “Oxazinan-2-one derivatives useful as PR modulators” (Wyeth, priority 2006, dated 2009).

What was measured:
progesterone receptor = biological target: T1, progesterone receptor (Homo sapiens, UniProt P06401); experiment: Effects of progestins and antiprogestins on alkaline phosphatase activity in T47D cells; assay type: cell-based; details: antagonist mode in the presence of 1 nM progesterone, 24 h, read-out: T47D Alkaline Phosphatase Activity IC50 (nM) or % inhibition
T1 construct: determining a compound's effect on alkaline phosphatase activity in T47D cells; endogenous in cells; host or cells: T47D cells
T1 sequence (P06401 1-933): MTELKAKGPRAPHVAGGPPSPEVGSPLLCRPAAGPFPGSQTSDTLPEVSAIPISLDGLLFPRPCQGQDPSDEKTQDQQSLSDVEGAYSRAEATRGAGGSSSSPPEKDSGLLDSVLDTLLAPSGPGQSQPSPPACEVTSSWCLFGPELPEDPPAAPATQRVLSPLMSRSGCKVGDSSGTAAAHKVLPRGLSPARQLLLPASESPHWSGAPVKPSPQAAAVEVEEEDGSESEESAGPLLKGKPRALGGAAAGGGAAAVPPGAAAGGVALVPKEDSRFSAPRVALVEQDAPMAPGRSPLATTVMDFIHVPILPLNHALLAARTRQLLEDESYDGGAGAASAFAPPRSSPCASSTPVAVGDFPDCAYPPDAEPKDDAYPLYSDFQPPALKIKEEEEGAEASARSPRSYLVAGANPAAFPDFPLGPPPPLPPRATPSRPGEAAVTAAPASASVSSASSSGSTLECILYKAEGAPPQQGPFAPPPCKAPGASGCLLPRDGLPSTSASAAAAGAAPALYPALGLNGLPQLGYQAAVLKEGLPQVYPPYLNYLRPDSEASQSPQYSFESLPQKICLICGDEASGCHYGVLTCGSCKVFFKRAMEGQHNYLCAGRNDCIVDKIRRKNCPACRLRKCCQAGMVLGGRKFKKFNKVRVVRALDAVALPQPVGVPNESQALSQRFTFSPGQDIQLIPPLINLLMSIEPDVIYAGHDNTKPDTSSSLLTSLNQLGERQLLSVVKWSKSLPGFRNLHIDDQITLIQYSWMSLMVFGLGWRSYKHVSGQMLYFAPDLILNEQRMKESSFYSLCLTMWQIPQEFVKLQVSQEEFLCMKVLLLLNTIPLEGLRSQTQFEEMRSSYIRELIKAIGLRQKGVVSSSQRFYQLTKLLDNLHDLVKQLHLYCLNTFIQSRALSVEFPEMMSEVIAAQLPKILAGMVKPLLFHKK
Experimental: (1) Effects of Progestins and Antiprogestins on Alkaline Phosphatase Activity in T47D Cells
PURPOSE: To identify progestins or antiprogestins by determining a compound's effect on alkaline phosphatase activity in T47D cells.
Culture Medium: • DMEM:F12 (1:1) (GIBCO, BRL) supplemented with 5% (v/v) charcoal stripped fetal bovine serum (not heat-inactivated), 100 U/mL penicillin, 100 μg/mL streptomycin, and 2 mM the GlutaMax™ reagent (GEBCO, BRL).
Alkaline phosphatase assay buffer: • I. 0.1M Tris-HCl, pH 9.8, containing 0.2% the Triton® X-100 reagent • II. 0.1M Tris-HCl, pH 9.8, containing 4 mM p-nitrophenyl phosphate (Sigma). B. Cell Culture and Treatment:
Frozen T47D cells were thawed in a 37° C. water bath and diluted to 280,000 cells/mL in culture medium. To each well in a 96-well plate (Falcon, Becton Dickinson Labware), 180 μL of diluted cell suspension was added.
Twenty μL of reference or test compounds diluted in the culture medium was then added to each well. […]
For reference and test compounds, a dose response curve was generated for dose (X-axis) vs. the rate of enzyme reaction (slope) (Y-axis). […] EC50 or IC50 values were calculated from the retransformed values. […]
Progesterone and trimegestone were reference progestins and RU486 was the reference antiprogestin. All reference compounds were run in full dose response curves and the EC50 and IC50 values were calculated.

Structure (SMILES)	melting point [°C]	IC50 (progesterone receptor) [nM]
C[C@@H]1COC(=O)N1c1nc(-c2ccc(Br)cc2)cs1 [Example 1, (4R)-3-[4-(4-Bromophenyl)-1,3-thiazol-2-yl]-4-methyl-1,3-oxazolidin-2-one]	197 to 199	
CCC[C@@H]1COC(=O)N1c1nc(-c2ccc(Br)cc2)cs1 [Example 2, (4R)-3-[4-(4-Bromophenyl)-1,3-thiazol-2-yl]-4-propyl-1,3-oxazolidin-2-one]	114 to 116	
O=C1OCCCN1c1nc(-c2ccc(Br)cc2)cs1 [Example 3, 3-[4-(4-Bromophenyl)-1,3-thiazol-2-yl]-1,3-oxazinan-2-one]	225 to 227	238
CC1(C)COC(=O)N(c2nc(-c3ccc(Br)cc3)cs2)C1 [Example 4, 3-[4-(4-Bromophenyl)-1,3-thiazol-2-yl]-5,5-dimethyl-1,3-oxazinan-2-one]	169 to 171	1370
